Results as given in patent publication US10307353B2, “1-phenylmono- or -polyhydroxypropane compounds, compositions and cosmetic uses thereof” (L'OREAL, priority 2015, dated 2019).

System: AMPK (phospho-AMPK Thr-172)
Assay: Level of expression of p-AMPK (Thr-172) in normal human epidermal keratinocytes, Western blotting
Assay type: cell-based
Conditions: for p-AMPK/GAPDH ratio relative to the control (100%): 48 hours incubation; for p-AMPK/AMPK ratio relative to the control (100%): 18 hours incubation
Description: Normal human epidermal keratinocytes are seeded at 180 000 cells per well and cultured in SFM culture medium (supplier Gibco) supplemented with 0.25 ng/ml EGF, 25 μg/ml of pituitary extract and 25 μg/ml gentamicin, up to confluence, and incubated in a humid oven at 37° C. and 5% CO2. The culture medium was then replaced with test medium (SFM (Gibco) supplemented with 25 μg/ml gentamicin) containing or not containing (control) the test compounds, or the references (AICAR—(5-amino-4-imidazole carboxamide riboside) at 500 μM). The cells were then incubated for 18 or 48 hours. The level of expression of p-AMPK was analyzed by Western blotting. At the end of the incubation, the proteins were extracted and quantified and then separated by electrophoresis on 10% polyacrylamide gel and then transferred onto a nitrocellulose membrane. […] Between each successive revelation, the antibodies were detached using a “stripping” buffer. The images were acquired with a Fuji LAS 3000 chemiluminescence scanner (Fujifilm) and the densitometric analyses were performed using the Multigauge software (Fujifilm). An increase in the phosphorylated form of AMPK (active form of the enzyme) relative to the control is evaluated in this test. Results Expressed in the form of the p-AMPK/GAPDH ratio relative to the control (100%): […]

SMILES	p-AMPK/GAPDH ratio relative to the control (100%) (1 μM)	p-AMPK/GAPDH ratio relative to the control (100%) (10 μM)	p-AMPK/GAPDH ratio relative to the control (100%) (100 μM)	p-AMPK/AMPK ratio relative to the control (100%) (500 μM)	p-AMPK/GAPDH ratio relative to the control (100%) (500 μM)
COc1cc(CC(O)CO)ccc1O (stereo not drawn) [Compound 5]	116 ± 17%	149 ± 25%	136 ± 14%		
COc1cc(CC(C)O)ccc1O (stereo not drawn) [Compound 1]				132% ± 11%	
NC(=O)c1ncn([C@@H]2O[C@H](CO)[C@@H](O)[C@H]2O)c1N [AICAR, 5-amino-4-imidazole carboxamide riboside, reference compound]				177% ± 31%	279 ± 96%
